The nature of data set [1]: In vivo test of acute T26A toxicity. Conditions: 100 uL intraperitoneal. Further details: species or system mice. As for the experimental part: All mice were male. They received one intraperitoneal injection. The injected volume was 100 uL to all of them, 14 hours after injection, they were all alive, and moved and acted normally.
Data set [2] in a line: Chronic oral tolerability: metabolic cages and post-mortem H&E histology. In kind it is in vivo, mice. Conditions: for pathological damage to the gastrointestinal tract: H&E stained tissues. The protocol:
The mice described in FIGS. 17-19 were studied in metabolic cages. Six days after they adjusted to the caged condition on regular diet and water, regular drinking water, or vehicle (2% DMSO and 2% cremophor) in drinking water, or 2 mM T26A in drinking water was administered for 16 days. Their water and food intake, weight body and urine volume were recorded daily. Results are shown graphically in FIG. 20.
FIG. 21 provides results of post-mortem studies on the mice of FIGS. 17-19 administered either regular drinking water, or vehicle (2% DMSO and 2% cremophor) in drinking water, or 2 mM T26A in drinking water for 16 days. At the end of experiments, we isolated tissues from the mice and made H&E stained slides of tissues and examined the tissues microscopically.

Data set [3] deals with T1, prostaglandin transporter (PGT) (Rattus norvegicus, UniProt Q00910).
T1 construct: GFP; expressed in transfected cells
Nature of the data set: PGE2 uptake by MDCK cells stably expressing PGT. Type of data set: cell-based. The protocol:
MDCK or 3T3 cells were seeded at 15-20% confluence on 24-well plates. The day on which the cells were seeded was considered day 1. PGE2 uptake experiments were conducted on day 4. All of the PGE2 uptake experiments were conducted at room temperature. On day 4, cells were washed twice with Waymouth buffer (135 mM NaCl, 13 mM H-Hepes, 13 mM Na-Hepes, 2.5 mM CaCl2, 1.2 mM MgCl2, 0.8 mM MgSO4, 5 mM KCl, and 28 mM D-glucose). Then 200 μL of Waymouth buffer containing [^3H]PGE2 was added to each well. At the designated time, the uptake of [^3H]PGE2 was stopped by aspiration of uptake buffer; this was followed by immediate washing twice with 500 μL of chilled Waymouth buffer. Cells were then lysed with 100 μL lysis buffer containing 0.25% SDS and 0.05 N NaOH. 1.5 mL of scintillation solution was added to each well, and intracellular [^3H]PGE2 was counted by MicroBeta Counter.
For preliminary screening of the compounds, 25 μL of Waymouth buffer containing small organic compounds were added to each well; this was immediately followed by the addition of 175 μL of Waymouth buffer containing [^3H]PGE2. In each well, the total volume of uptake medium was 200 μL. Organic compounds were first dissolved in DMSO and then diluted in Waymouth buffer. The percent inhibition of [^3H]PGE2 uptake by compounds was calculated as [(uptakevehicle−uptakeinhibitor)÷(uptakevehicle)]×100.
The initial velocities at various initial extracellular concentrations of PGE2 were determined from the PGE2 uptake in the first 2 minutes; these were linear over the time course of PGE2 uptake. Ki values were obtained by curve fitting the reciprocal of initial velocities of PGE2 uptake versus the reciprocal of extracellular PGE2 concentrations at various concentrations of the inhibitors. At low PGE2 concentrations, the extracellular concentrations were taken as ^3H labeled PGE2, which has a specific activity of 500 μCi/mol. At high concentrations of PGE2, a mixture of ^3H labeled and unlabeled PGE2 was made to a final specific activity of 25 μCi/mol.

Data set [4] can be described thus: Endogenous PGE2 in circulating blood after jugular vein injection. In kind it is in vivo, rats. To be noted: 300 μL of 1 mM, blood 10 minutes later. As for the experimental part:
Either 300 μL vehicle (4% DMSO and 4% cremophor in water) or 300 μL of 1 mM T26A was injected into the jugular vein of anesthetized rats (300-325 g weight). One mL of blood was obtained from the carotid artery 10 minutes later, PGE2 in blood samples was measured using PGE2 EIA kit from Caymanchem. […] This finding is consistent with the model advanced in Example 2 (FIG. 8). Since PGT transports PGE2 into the cell, inhibiting PGT would be expected to inhibit removal of PGE2 from blood to be internalized and degraded.

The nature of data set [5]: Chronic oral administration in drinking water: blood PGE2, urine PGE2, bleeding time. Type of data set: in vivo, mice. Conditions: 2 mM in drinking water, 16 days. The protocol:
Regular water, vehicle (2% DMSO and 2% cremophor) in drinking water, or 2 mM T26A in drinking water was administered to 17 week old mice for 16 days. At the end of the experiment, we withdrew blood by cardiac puncture. PGE2 in blood samples was measured by using PGE2 EIA kit from Caymanchem.
The mice described above pertaining to FIG. 17 were placed in metabolic cages. Six days after they adjusted to the caged condition (on regular diet and water) regular drinking water, vehicle (2% DMSO and 2% cremophor) in drinking water, or 2 mM T26A in drinking water was administered for 16 days. Urine was collected daily. PGE2 in urine samples was measured using PGE2 EIA kit from Caymanchem. […] This is also consistent with the FIG. 8 model. Inhibiting PGE2 transport into the cell reduces its intracellular degradation such that more is secreted without intracellular degradation.
At the end of the experiment shown in FIGS. 17-18, bleeding time was measured using the tail cut method. About 1 cm tails of restrained mice were cut off; the diameter of the cut was kept the same for all mice. The emerging blood was blotted every 15 seconds without touching the wound. Bleeding time was measured as the point at which bleeding had stopped for 1 minute. Results are shown graphically in FIG. 19. […] It is believed that the blockade of endothelial PCT allows intravascular accumulation of PGE2 or prostacyclin, either of which can inhibit platelet aggregation.

Data set [6] can be described thus: Systemic BP after IV injection in anesthetized WKY and SHR rats. Type of data set: in vivo. The protocol: The effect of T26 IV injections on systemic BP in anesthetized rats of a control strain (WKY) and the Spontaneously Hypertensive Rat (SHR) strain was evaluated.
A short description of data set [7]: Degradation of exogenously-administered PGE2. Type of data set: in vivo, rats. Conditions: 300 μL of 1 mM IV, PGE2 injected ten minutes later. The protocol:
Either 300 μL vehicle (4% DMSO and 4% cremophor in water) or 300 μL of 1 mM T26A was injected into the jugular vein of anesthetized rats (300-325 g weight). Ten minutes later 100 μL of 1 ng/μL PGE2 was injected. One mL blood was withdrawn from the carotid artery at 1, 3, 5, and 10 min after PGE2 injection. PGE2 in blood samples was measured using PGE2 EIA kit from Caymanchem. […] This is also consistent with the FIG. 8 model. Inhibiting PGE2 transport into the cell reduces its intracellular degradation.

The mark [8] stands for this setting: 2 mM in drinking water, 16 days.

Consider one compound from US9144573B2, “Prostaglandin transporter inhibitors” (Albert Einstein College of Medicine of Yeshiva University, priority 2006, dated 2015).

“Also recorded” adds a separate entry of the source.

As a reminder, the Ki is a measure of affinity in units of concentration, obtained from inhibition or displacement. A higher Ki goes with weaker binding. For the compound `[N-]=[N+]=NCCOCCOCCNC(=O)c1ccc(Nc2nc(NCCOCCOCCNC(=O)c3ccccc3)nc(Nc3ccc(O)cc3)n2)cc1` [T26A], the Condition entry in data set [1] (6 mM, 3% DMSO, 3% Cremophor in water) is recorded as “Appeared normal”; in data set [1] (25 mM, 5% DMSO, 5% Cremophor in water) it was “More actively than mice #1,; also recorded: More active than mice #1, #4”; in data set [1] (250 mM in 100% DMSO), “Rarely moved for the first”. Further, the “effects on water and food intake, body weight, daily urine volume” value in data set [2] (setting [8]) was “did not have any observable effects; also recorded: does not have any apparent effects”. The “pathological damage to the gastrointestinal tract” value is on record as “did not cause any pathological damage” in data set [2] (setting [8]) and “does not cause any pathological damage” in data set [2] (2 mM in drinking water, 16 days, listed as T26). Also, the “toxicity on chronic oral basis” value in data set [2] (doses sufficient to raise plasma and urinary PGE2) is given as “non-toxic”. In addition, the inhibition constant Ki was found to be 300 nM in data set [3] (Example 2) and 380 nM in data set [3] (Table 2). In addition, in data set [3] (MDCK, read-out: % Inhib. at 5 μM), the inhibition at 5 µM amounted to 92%. Moreover, the mode of inhibition result in data set [3] (double reciprocal analysis) was “competitively inhibits”. Besides, the “plasma PGE2 concentrations” value in data set [4] is given as “greater than two-fold increase; also recorded: increases endogenous PGE2”. Besides, the “plasma PGE2 levels” value in data set [5] (mice) was “increased plasma PGE2 levels four-fold”. Moreover, the “urinary excretion of endogenous PGE2” value in data set [5] (mice) is “increased urinary excretion of endogenous PGE2; also recorded: increases PGE2 excretion in urine”. The bleeding time entry in data set [5] (tail cut method) was “increases bleeding time”. Further, the systemic blood pressure entry in data set [6] is recorded as “reduced the blood pressure of both rats”. Moreover, the “degradation of exogenously-administered PGE2” value in data set [7] is listed as “inhibited PGE2 degradation; also recorded: reduces the degradation”.
